In ChEMBL document CHEMBL1158907, “2,3,4-Tribromopyrrole from the Marine Polychaete Polyphysia crassa” (J Nat Prod, 1990) one finds zone of inhibition and Activity data, which are given here for 1 molecule.

The subject of series [1] is Flavobacterium. Nature of the series: Antimicrobial activity against Flavobacterium at 50 ug/disk after 48 hrs. To be noted: read-out: IZ. The format is functional.
For series [2], the system named is Bacillus. Briefly: Antimicrobial activity against Bacillus at 50 ug/disk after 48 hrs. The format is functional. Conditions: read-out: IZ.
Series [3] has as its system Corynebacterium. Nature of the series: Antimicrobial activity against Corynebacterium at 10 ug/disk after 48 hrs. The format is functional. Conditions: read-out: IZ.
The subject of the next series is Vibrio. Briefly: Antimicrobial activity against Vibrio at 50 ug/disk after 48 hrs. The format is functional. Conditions: read-out: IZ.
In series [4] the test system is Corynebacterium. Briefly: Antimicrobial activity against Corynebacterium at 50 ug/disk after 48 hrs. The format is functional. To be noted: read-out: IZ.
The subject of another series is Alteromonas. Nature of the series: Antimicrobial activity against Alteromonas at 50 ug/disk after 48 hrs. The format is functional. To be noted: read-out: IZ.
Series [5] concerns Flavobacterium. Nature of the series: Antimicrobial activity against Flavobacterium at 10 ug/disk after 48 hrs. The format is functional. Conditions: read-out: IZ.
Series [6] has as its system Bacillus. Briefly: Antimicrobial activity against Bacillus at 10 ug/disk after 48 hrs. To be noted: read-out: IZ. The format is functional.
Another series has as its system Carassius auratus. Briefly: Toxicity against goldfish at 500 ug. Conditions: in vivo. The format is organism-based.

In the case of `Brc1c[nH]c(Br)c1Br`, the zone of inhibition at 50 µg/disc in the series with Flavobacterium [1], in the series on Bacillus [2], with Vibrio, in the series on Corynebacterium [4] and in the series with Alteromonas was more than 5 mm each time. Further, the zone of inhibition at 10 µg/disc in the series with Corynebacterium [3], in the series with Flavobacterium [5] and in the series on Bacillus [6] was 2 mm each time. Moreover, the Activity entry in the series with Carassius auratus was “Non-toxic”.
